In one series the target is LOX (Glycine max, UniProt P08170). Type of series: biochemical. To be noted: read-out: IC50 LOX. Here is the method:
(§1) For all inhibitory activity, IC50 was calculated. The IC50 value defined as the concentration of the extract inhibiting 50% of the enzyme activity was determined by measuring the enzyme inhibitory activity and peptide contents in each sample. The IC50 value was calculated from the plotted graph of the inhibition activity for the five different peptide concentrations.
The LOX inhibitory assay was carried out with the method described by Szymanowska et al.. A solution of pure linoleic acid was used as a substrate. First, 157.2 µl of pure linoleic acid was mixed with 157.2 µL of Tween-20 and 10 mL of deionized water. The substrate was clarified with 1 mL of 1 M NaOH and M/15 phosphate buffer pH = 7.0 was added to the volume of 200 mL. The enzymatic reaction mixture contained 297 µL of M/15 phosphate buffer pH = 7, 2 µl of the substrate solution, and 1 µL of the enzyme solution. A mixture of 298 µl of phosphate buffer (pH 7.0) and 2 µL of the substrate solution was used to calibrate the spectrophotometer. Changes in absorbance at 234 nm were measured using BioTek Microplate Readers.
(§2) Substrate solutions (5.0, 10.0, 15.0, and 20.0 mM) were prepared and used to determine the Michaelis constant (Km), the inhibition constant (Ki), and the maximum velocity (Vmax) of enzymes. The kinetic parameters were evaluated by Lineweaver–Burk’s method. The reaction conditions were the same as in the enzyme inhibitory activity assay.

The next series concerns the target T1, pancreatic lipase (Homo sapiens, UniProt P16233).
T1 sequence (P16233 17-465): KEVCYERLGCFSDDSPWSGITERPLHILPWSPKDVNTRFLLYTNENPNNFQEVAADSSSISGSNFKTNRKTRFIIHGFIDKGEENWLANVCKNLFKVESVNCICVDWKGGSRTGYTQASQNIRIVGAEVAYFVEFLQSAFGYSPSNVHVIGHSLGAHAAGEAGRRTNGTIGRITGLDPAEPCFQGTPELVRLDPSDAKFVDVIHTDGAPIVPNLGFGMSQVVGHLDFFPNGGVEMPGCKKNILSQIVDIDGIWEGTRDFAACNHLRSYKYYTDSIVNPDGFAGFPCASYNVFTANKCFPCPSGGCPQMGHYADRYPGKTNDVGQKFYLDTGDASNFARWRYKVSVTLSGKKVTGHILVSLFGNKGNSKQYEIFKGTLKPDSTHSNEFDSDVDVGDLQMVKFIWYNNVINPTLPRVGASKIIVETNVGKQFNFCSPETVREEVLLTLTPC
The series is described as follows: Pancreatic lipase inhibitory activity (pNPA) and kinetics. Type of series: biochemical. To be noted: mean ± SD, triplicate. As for the experimental part: as §1
Lipase inhibitory activity was determined with the method described by Jakubczyk et al.. The final volume of the reaction mixture was 150 μL (2 μL of the enzyme, 5 μL of the sample, 142 μL of 100 mM potassium phosphate buffer, pH 7.5, and 1 μL of a 100 mM p-nitrophenyl acetate (pNPA) solution in dimethyl sulfoxide (DMSO). Changes in absorbance at […] were measured using BioTek Microplate Readers.
as §2

A further series deals with T2, COX-2 (Homo sapiens, UniProt P35354).
T2 construct: purchased Cayman Chemical 760151
T2 sequence (P35354 18-604): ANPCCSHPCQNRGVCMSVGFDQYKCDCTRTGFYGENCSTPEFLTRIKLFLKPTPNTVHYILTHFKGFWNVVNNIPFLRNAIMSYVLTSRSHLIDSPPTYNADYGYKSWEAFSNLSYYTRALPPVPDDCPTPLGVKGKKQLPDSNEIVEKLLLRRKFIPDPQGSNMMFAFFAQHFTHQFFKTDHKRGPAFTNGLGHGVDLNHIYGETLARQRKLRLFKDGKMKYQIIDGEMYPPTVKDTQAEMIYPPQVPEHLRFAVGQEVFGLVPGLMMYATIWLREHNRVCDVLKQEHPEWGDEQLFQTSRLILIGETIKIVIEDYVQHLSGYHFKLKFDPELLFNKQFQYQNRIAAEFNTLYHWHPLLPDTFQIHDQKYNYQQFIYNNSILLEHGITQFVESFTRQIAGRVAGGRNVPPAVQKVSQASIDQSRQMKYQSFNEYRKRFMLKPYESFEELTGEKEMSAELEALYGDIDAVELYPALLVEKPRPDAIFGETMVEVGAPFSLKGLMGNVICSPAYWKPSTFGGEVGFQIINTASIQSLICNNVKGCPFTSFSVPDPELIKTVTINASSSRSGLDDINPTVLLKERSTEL
The series is described as follows: COX-2 inhibitory activity (COX Activity Assay kit) and kinetics. Type of series: biochemical. The note with it: mean ± SD, triplicate. As for the experimental part:
as §1
The effect of the peptide on COX-1 and COX-2 was measured using the COX Activity Assay kit from Cayman Chemical (Item No. 760151, Ann Arbor, MI, USA). COX activity was determined according to the instructions provided with the kit. The enzyme activity was assayed by calorimetric measurement of the appearance of oxidized N,N,N′,N′-Tetramethyl-p-phenylenediamine (TMPD) at 590 nm using BioTek Microplate Readers (Epoch™ 2 BioTek, Bad Friedrichshall, Germany).
as §2

Another series concerns HECa10 cells. Put plainly: Neutral red (NR) test. The format is cell-based, murine. To be noted: 24-h incubation, 0.1–100 µg/mL. As for the experimental part:
The study was conducted according to the procedure described by Rokicki et al.. HECa10 cells after 80–90% confluence were trypsinized (3 min, 37 °C), centrifuged (300 g, 5 min), counted, and plated in 96-well plates at a concentration of 1 × 10^4 cells/well. Then, 24 h after seeding, cells were washed with phosphate-buffered saline (PBS) solution and culture medium (Dulbecco’s Modified Eagle Medium (DMEM) + 10% fetal bovine serum (FBS) + antibiotics, all from Life Technologies, Warsaw, Poland) was added with test factors in concentrations: 0.1; 1; 5; 10; 50; 100 µg/mL). Then, 24 h after addition of the compounds, proliferation tests (MTT, NR, LDH) were performed. The color intensity was determined using a Fluostar Omega microplate reader. Results are presented as the mean ± SD of 3 independent experiments (n = 12).
The cells were seeded in a 96-well culture plate at a concentration of 1 × 10^4 cells/well. Then, 24 h after seeding, the cells were rinsed twice with PBS (Life Technologies, Poland) and resuspended in fresh growth medium. Peptide fractions were added at concentrations of 0 (control), 0.1, 1, 5, 10, 50, and 100 µg/mL. After 24 h of incubation with the proteins, the uptake of the neutral red (NR kit, Sigma Aldrich, Poznań, Poland,) was assessed. The absorption was measured at a wavelength of 540 nm with the background cutoff at 690 nm (FLUOstar Omega, BMG Labtech GmbH, Ortenberg, Germany). The results are presented as the percentage of the control values (mean ± SD). Each assay was performed in triplicate (n = 18).

Like-named read-outs stand apart in the source and are kept apart here. No end group written: not given here.

The IC50 is the midpoint of a concentration-inhibition curve.

Chain of LOX (P08170 whole entry): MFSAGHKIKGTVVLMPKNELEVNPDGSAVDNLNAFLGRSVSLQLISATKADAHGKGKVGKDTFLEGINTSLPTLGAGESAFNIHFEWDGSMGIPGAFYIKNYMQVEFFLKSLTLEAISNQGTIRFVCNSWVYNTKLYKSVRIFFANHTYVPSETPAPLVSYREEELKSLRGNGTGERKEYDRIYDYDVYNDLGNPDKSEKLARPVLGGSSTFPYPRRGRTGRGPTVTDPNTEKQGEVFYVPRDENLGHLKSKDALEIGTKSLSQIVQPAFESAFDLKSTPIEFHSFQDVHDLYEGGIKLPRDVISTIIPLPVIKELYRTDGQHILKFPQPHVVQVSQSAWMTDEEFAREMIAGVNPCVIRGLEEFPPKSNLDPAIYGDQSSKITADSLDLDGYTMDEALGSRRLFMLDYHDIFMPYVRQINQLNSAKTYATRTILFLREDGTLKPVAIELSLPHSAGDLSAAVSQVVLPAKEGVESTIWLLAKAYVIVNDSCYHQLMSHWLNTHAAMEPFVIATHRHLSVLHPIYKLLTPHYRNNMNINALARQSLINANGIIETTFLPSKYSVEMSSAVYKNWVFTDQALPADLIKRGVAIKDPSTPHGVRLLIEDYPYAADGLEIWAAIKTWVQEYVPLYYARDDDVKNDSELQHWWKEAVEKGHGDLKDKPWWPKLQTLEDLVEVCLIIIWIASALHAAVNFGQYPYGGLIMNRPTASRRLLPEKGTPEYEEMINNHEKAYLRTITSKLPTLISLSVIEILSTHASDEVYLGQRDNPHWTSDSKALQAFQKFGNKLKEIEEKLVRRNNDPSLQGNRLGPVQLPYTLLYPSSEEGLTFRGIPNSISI

Turning to GNPVGGVGHGTTGT [GT-14, GNPVGGVGHGTTGT], the IC50 at LOX is 153 µM; against pancreatic lipase, 86.1 µM; on COX-2, 3.66 µM. Further, the “NR test, HECa10 cell count compared to control” value (“NR test … compared to control” below) in the series with HECa10 cells is given as “no statistically significant differences”.

As for YGNPVGGVGH [YH-10, YGNPVGGVGH], the IC50 on LOX is 127 µM; against pancreatic lipase it was 107 µM; at COX-2 it was 16.2 µM. For the same sequence, the “NR test … compared to control” value with HECa10 cells was “declined statistically significantly”.

Turning to “GEHGGAGMGGGQFQPV [GV-16, GEHGGAGMGGGQFQPV]”, the IC50 was 68.5 µM on LOX, 41.9 µM on pancreatic lipase and 30.2 µM on COX-2. Besides, in the series on HECa10 cells, the “NR test … compared to control” value was “no statistically significant differences”.

Consider EQGFLPGPEESGR [ER-13, EQGFLPGPEESGR], for which the IC50 is 60.1 µM at LOX, 54.8 µM on pancreatic lipase and 3.07 µM at COX-2. In addition, the “NR test … compared to control” value in the series on HECa10 cells is “no statistically significant differences”.

In the case of GQLGEHGGAGMG [GG-12, GQLGEHGGAGMG], the results for the IC50 on LOX, at pancreatic lipase and at COX-2 were 131 µM, 56.6 µM and 15.7 µM, respectively. Moreover, in the series on HECa10 cells, the “NR test … compared to control” value is “no statistically significant differences”.

On to RLARAGLAQ [RQ-9, RLARAGLAQ], for which the IC50 at LOX (mean ± SD, triplicate) is 205 µM; at pancreatic lipase, 102 µM; at COX-2 it was 4.99 µM. Also, the “NR test … compared to control” value in the series on HECa10 cells is given as “no statistically significant differences”.
